Measurements published in the NIST ThermoML archive (doi:10.1016/j.jct.2016.02.016).
Numbers after ± are expanded uncertainties.

Test: xn = mol fraction of the nth substance listed
Conditions: 100 kPa, Liquid; for speed of sound: Frequency=3 MHz, Sing-around technique in a fixed-path interferometer; for mass density: Vibrating tube method

CC(C)=O [acetone] + CN(C)C=O
Conditions	mass density, 293.15 K [kg/m3]	mass density, 298.15 K [kg/m3]	speed of sound, 293.15 K [m/s]	speed of sound, 298.15 K [m/s]
x2 = 0	790.19 ± 1.9	784.43 ± 1.9	1183.6 ± 1.1	1163.6 ± 1.1
x2 = 0.05	–	793.781 ± 1.9	–	1180.1 ± 1.3
x2 = 0.0503	799.565 ± 1.9	–	1200.1 ± 1.3	–
x2 = 0.1057	809.645 ± 2	–	1218 ± 1.3	–
x2 = 0.127	–	807.814 ± 2	–	1205.5 ± 1.3
x2 = 0.1485	–	811.673 ± 2	–	1212.5 ± 1.3
x2 = 0.1529	818.017 ± 2	–	1232.9 ± 1.3	–
x2 = 0.1908	–	819.252 ± 2	–	1226.2 ± 1.3
x2 = 0.1992	826.191 ± 2	–	1247.6 ± 1.3	–
x2 = 0.2475	834.489 ± 2	–	1262.6 ± 1.3	–
x2 = 0.2492	–	829.349 ± 2	–	1244.6 ± 1.3
x2 = 0.297	–	837.55 ± 2	–	1259.6 ± 1.3
x2 = 0.2981	843.136 ± 2	–	1278.3 ± 1.3	–
x2 = 0.3399	–	844.898 ± 2	–	1273.1 ± 1.3
x2 = 0.3458	851.059 ± 2.1	–	1292.6 ± 1.3	–
x2 = 0.3942	859.037 ± 2.1	–	1307.4 ± 1.3	–
x2 = 0.3997	–	854.838 ± 2.1	–	1291.5 ± 1.3
x2 = 0.4461	–	862.361 ± 2.1	–	1305.3 ± 1.3
x2 = 0.4516	868.376 ± 2.1	–	1324.6 ± 1.4	–
x2 = 0.4973	875.647 ± 2.1	–	1338.1 ± 1.4	–
x2 = 0.4978	–	870.632 ± 2.1	–	1320.8 ± 1.4
x2 = 0.5476	883.523 ± 2.1	–	1352.9 ± 1.4	–
x2 = 0.549	–	878.71 ± 2.1	–	1336.2 ± 1.4
x2 = 0.5893	–	884.968 ± 2.1	–	1348.1 ± 1.4
x2 = 0.599	891.359 ± 2.2	–	1367.5 ± 1.4	–
x2 = 0.6413	–	892.941 ± 2.2	–	1363.3 ± 1.4
x2 = 0.6521	899.454 ± 2.2	–	1382.9 ± 1.4	–
x2 = 0.6822	–	898.928 ± 2.2	–	1374.7 ± 1.4
x2 = 0.7051	907.302 ± 2.2	–	1397.8 ± 1.4	–
x2 = 0.7435	–	908.066 ± 2.2	–	1392.3 ± 1.4
x2 = 0.7538	914.504 ± 2.2	–	1411.4 ± 1.4	–
x2 = 0.7945	–	915.398 ± 2.2	–	1406.4 ± 1.4
x2 = 0.8063	921.993 ± 2.2	–	1425.7 ± 1.5	–
x2 = 0.8342	–	921.109 ± 2.2	–	1417.5 ± 1.5
x2 = 0.8441	927.346 ± 2.2	–	1436 ± 1.5	–
x2 = 0.8801	–	927.621 ± 2.2	–	1430.1 ± 1.5
x2 = 0.9022	935.518 ± 2.3	–	1451.7 ± 1.5	–
x2 = 0.9377	–	935.649 ± 2.3	–	1445.8 ± 1.5
x2 = 0.9471	941.723 ± 2.3	–	1463.7 ± 1.5	–
